7 molecules from ChEMBL document CHEMBL5104136, “Discovery of benzodioxane analogues as lead candidates of AIMP2-DX2 inhibitors” (Bioorg Med Chem Lett, 2022) can be followed below.

Data set [1] deals with T1, Aminoacyl tRNA synthase complex-interacting multifunctional protein 2 (Homo sapiens, UniProt Q13155). As to the kind of experiment: Inhibition of AIMP2-DX2 in human A549 cells by luciferase assay. It is filed as cell-based.
In data set [2] the target is T1, Aminoacyl tRNA synthase complex-interacting multifunctional protein 2. The data set is described as follows: Inhibition of AIMP2-DX2 in human A549 cells by nanoluciferase based assay. Format: cell-based.
Data set [3] deals with A549. As to the kind of experiment: Cytotoxicity against human A549 cells expressing high levels of AIMP2-DX2 assessed as reduction in cell viability incubated for 96 hrs. It is filed as functional, cell-based. The conditions noted are these: A549, 96 h.
Data set [4] has as its system NCI-H460. The data set is described as follows: Cytotoxicity against human NCI-H460 cells expressing median levels of AIMP2-DX2 assessed as reduction in cell viability incubated for 96 hrs. Format: functional, cell-based. The conditions noted are these: NCI-H460, 96 h.
The nature of data set [5]: Cytotoxicity against human WI-26 cells expressing low levels of AIMP2-DX2 assessed as reduction in cell viability incubated for 96 hrs. Format: toxicity, cell-based. To be noted: wi-26, 96 h.
A short description of data set [6]: Metabolic stability in human assessed as half life. It is filed as ADME.
Data set [7] in a line: Metabolic stability in mouse assessed as half life. Format: ADME.
Data set [8] in a line: Plasma stability in human assessed as compound remaining measured after 2 hrs. It is filed as ADME, cell-free. The conditions noted are these: read-out: Stability.
Data set [9] is described as follows: Plasma stability in mouse assessed as compound remaining measured after 2 hrs. Format: ADME, cell-free. The conditions noted are these: read-out: Stability.
The target of data set [10] is Cytochrome P450 3A4 (Homo sapiens, UniProt P08684). As to the kind of experiment: Inhibition of CYP3A4 (unknown origin). It is filed as ADME.
Data set [11] has as its target Cytochrome P450 2D6 (Homo sapiens, UniProt P10635). The data set is described as follows: Inhibition of CYP2D6 (unknown origin). Format: ADME.
Data set [12] addresses T2, Cytochrome P450 1A2 (Homo sapiens, UniProt P05177).
T2 sequence (P05177 whole entry): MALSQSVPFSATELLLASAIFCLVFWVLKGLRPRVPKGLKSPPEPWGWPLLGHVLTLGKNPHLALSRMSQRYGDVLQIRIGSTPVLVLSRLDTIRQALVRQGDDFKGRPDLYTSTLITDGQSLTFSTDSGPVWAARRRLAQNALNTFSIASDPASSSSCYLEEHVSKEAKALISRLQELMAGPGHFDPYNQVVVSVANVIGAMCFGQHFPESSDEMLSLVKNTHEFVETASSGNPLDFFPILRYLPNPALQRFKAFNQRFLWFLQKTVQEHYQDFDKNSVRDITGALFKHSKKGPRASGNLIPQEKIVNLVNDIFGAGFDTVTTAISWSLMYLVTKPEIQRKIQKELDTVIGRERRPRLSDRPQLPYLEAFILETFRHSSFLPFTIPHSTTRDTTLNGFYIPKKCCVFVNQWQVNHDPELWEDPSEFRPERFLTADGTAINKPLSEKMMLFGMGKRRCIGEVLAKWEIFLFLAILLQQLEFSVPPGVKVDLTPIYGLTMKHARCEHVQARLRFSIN
As to the kind of experiment: Inhibition of CYP1A2 (unknown origin). It is filed as ADME.

The target of data set [13] is Cytochrome P450 2C9 (Homo sapiens, UniProt P11712). The data set is described as follows: Inhibition of CYP2C9 (unknown origin). It is filed as ADME.
Data set [14] addresses Cytochrome P450 2C19 (Homo sapiens, UniProt P33261). As to the kind of experiment: Inhibition of CYP2C19 (unknown origin). Format: ADME.
Data set [15] has as its system A549. The data set is described as follows: Inhibition of cell proliferation in human A549 cells. Format: functional, cell-based.

A value given as a limit tells only on which side of the number the result lay.

T1 sequence (Q13155 whole entry, looked up, one chain of several): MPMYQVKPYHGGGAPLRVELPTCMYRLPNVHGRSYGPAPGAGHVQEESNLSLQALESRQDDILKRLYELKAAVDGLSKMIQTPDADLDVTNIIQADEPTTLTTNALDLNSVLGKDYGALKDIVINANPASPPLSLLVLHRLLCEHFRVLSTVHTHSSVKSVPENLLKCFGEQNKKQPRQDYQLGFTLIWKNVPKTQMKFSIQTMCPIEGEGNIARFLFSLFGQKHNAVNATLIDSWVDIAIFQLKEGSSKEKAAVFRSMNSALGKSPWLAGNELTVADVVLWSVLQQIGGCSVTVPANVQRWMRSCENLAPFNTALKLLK
Chain of Cytochrome P450 2D6 (P10635 whole entry): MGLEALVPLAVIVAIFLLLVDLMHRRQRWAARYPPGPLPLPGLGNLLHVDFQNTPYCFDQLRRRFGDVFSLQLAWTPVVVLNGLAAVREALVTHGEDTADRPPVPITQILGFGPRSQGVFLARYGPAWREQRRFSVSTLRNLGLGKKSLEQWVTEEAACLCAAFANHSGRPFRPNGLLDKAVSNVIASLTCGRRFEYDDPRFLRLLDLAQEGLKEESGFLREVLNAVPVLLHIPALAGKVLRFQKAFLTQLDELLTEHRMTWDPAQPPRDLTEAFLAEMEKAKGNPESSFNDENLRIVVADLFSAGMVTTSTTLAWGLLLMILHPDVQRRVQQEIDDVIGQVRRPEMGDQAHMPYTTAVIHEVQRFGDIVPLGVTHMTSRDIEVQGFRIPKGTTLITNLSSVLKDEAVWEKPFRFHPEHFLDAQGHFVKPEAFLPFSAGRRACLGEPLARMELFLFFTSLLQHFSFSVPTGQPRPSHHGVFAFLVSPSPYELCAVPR
Chain of Cytochrome P450 2C19 (P33261 whole entry): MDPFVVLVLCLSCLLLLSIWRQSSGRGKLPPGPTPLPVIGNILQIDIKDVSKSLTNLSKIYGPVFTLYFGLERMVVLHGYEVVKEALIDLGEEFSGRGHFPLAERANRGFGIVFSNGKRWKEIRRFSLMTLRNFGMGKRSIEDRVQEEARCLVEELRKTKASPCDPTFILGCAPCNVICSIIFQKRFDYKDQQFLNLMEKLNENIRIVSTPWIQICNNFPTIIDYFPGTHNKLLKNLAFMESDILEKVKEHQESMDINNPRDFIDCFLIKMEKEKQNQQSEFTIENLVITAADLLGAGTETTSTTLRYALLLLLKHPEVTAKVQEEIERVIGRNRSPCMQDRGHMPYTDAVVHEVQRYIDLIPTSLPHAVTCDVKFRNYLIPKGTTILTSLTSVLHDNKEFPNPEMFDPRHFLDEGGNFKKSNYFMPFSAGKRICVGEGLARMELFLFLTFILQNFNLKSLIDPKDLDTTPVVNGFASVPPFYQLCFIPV
Chain of Cytochrome P450 3A4 (P08684 whole entry): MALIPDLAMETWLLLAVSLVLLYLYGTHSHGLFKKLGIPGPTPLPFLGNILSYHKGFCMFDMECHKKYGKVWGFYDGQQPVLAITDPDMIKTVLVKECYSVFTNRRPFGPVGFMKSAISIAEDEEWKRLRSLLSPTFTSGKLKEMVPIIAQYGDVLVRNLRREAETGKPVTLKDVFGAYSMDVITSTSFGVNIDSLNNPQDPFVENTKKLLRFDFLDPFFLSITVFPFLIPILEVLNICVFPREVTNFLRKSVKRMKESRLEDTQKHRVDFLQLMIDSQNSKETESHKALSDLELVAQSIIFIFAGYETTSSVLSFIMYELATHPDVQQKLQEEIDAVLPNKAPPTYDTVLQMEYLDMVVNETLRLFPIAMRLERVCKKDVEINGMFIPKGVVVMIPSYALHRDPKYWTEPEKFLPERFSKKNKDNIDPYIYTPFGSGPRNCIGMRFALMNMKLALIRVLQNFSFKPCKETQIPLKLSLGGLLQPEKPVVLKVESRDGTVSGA
Chain of Cytochrome P450 2C9 (P11712 whole entry): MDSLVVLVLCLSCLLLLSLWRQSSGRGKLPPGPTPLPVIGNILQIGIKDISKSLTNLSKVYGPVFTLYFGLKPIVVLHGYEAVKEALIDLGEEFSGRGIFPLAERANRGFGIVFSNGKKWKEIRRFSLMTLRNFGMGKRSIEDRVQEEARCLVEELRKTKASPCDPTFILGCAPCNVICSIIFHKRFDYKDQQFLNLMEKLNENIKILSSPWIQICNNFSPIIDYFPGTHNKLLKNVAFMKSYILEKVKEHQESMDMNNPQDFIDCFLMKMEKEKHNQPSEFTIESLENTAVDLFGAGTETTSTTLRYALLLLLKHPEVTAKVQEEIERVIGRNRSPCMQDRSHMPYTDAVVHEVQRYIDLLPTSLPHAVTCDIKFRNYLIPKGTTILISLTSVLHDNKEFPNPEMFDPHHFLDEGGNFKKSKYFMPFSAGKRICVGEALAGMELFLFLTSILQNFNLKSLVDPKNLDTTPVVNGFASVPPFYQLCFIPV

As to `Cc1ccc2c(CC(=O)NCC3COc4ccccc4O3)coc2c1` (stereo unspecified), the IC50 in [1] is 5680 nM.

Take `O=C(O)c1cccc(-c2ccc(/C=N/NC(=O)C3COc4ccccc4O3)o2)c1` (stereo unspecified): the IC50 is 7380 nM in [1]; 10100 nM in [2]; greater than 50000 nM in [10]; greater than 50000 nM in data set [11]; greater than 50000 nM in [12]; 49500 nM in data set [13]. In addition, the IC50 in [14] is greater than 50000 nM. Further, the EC50 in data set [3] turned out to be 12000 nM; in [4], 2980 nM. Also, the Activity result in [5] is listed as “Non-Toxic”. Moreover, the values for the half-life in data set [6] and in [7] were 49.1 min and 30.9 min, respectively. Further, the remaining at 2 h was 69.8% in data set [8] and 47.3% in data set [9].

Consider `Cc1cc2occ(CC(=O)NCC3COc4ccccc4O3)c2cc1C` (stereo unspecified), for which the EC50 in data set [3] is 1230 nM; in data set [4], 370 nM. The Activity result in [5] is recorded as “Non-Toxic”.

On to `O=C(Cc1ccc(-c2ccccc2)cc1)NCC1COc2ccccc2O1` (stereo unspecified), for which the EC50 is 690 nM in data set [3] and 150 nM in data set [4]. In [5], the Activity result was “Non-Toxic”. In addition, the half-life was less than 2.5 min in data set [6] and 1.6 min in data set [7]. For the same molecule, the remaining at 2 h came out at 98.7% in data set [8] and 108% in data set [9]. Besides, the IC50 was greater than 50000 nM in data set [10]; 12300 nM in data set [11]; 1640 nM in data set [12]; 559 nM in data set [13]; 228 nM in data set [14].

`Cc1ccc(S(=O)(=O)N[C@@H](CC(C)C)C(=O)N2CCCOCCOCCOCC2)cc1`: in data set [15], the IC50 is 40100 nM.

As to `CCc1ccc(CC(=O)NCC2COc3ccccc3O2)cc1` (stereo unspecified), the EC50 in [3] amounted to 688 nM; in [4], 204 nM. The Activity result in data set [5] was “Non-Toxic”. Also, the half-life in [6] was determined as 2.7 min; in data set [7], 0.7 min. The remaining at 2 h in [8] was 97%; in data set [9], 94.2%. Moreover, the IC50 is 36200 nM in [10]; 29200 nM in data set [11]; 417 nM in data set [12]; 3460 nM in [13]; 461 nM in [14].

Take `Cc1cc(O)ccc1CC(=O)NCC1COc2ccccc2O1` (stereo unspecified): the EC50 in data set [3] amounted to 1100 nM; in data set [4], 458 nM. Also, the Activity entry in data set [5] is reported as “Non-Toxic”.
